Reference: patent publication US10100010B1, “4-methoxy pyrrole derivatives or salts thereof and pharmaceutical composition comprising the same” (Daewoong Pharmaceutical Co., Ltd., priority 2015, dated 2018)

Experiments:
[1] = tested on: 100% ethanol (EtOH)-induced gastric damage in rats; test: 100% ethanol (EtOH)-induced gastric damage in rats, gastric damage inhibition and mucus enhancement; type: in vivo, Sprague Dawley (SD) rats; settings: oral 3.0, 10.0 and 30.0 mg/kg, 1 hour before 100% EtOH
Description: The inhibitory activity and defensive factor-enhancing effects of the compound prepared in Example 8 were measured using 100% ethanol (EtOH)-induced gastric damage model (Paul V. Tan et al., 2002, Journal of Ethnopharmacology, 82, p 69-74). Male Sprague Dawley (SD) rats (body weight 180-200 g) was fasted for 24 hours with free access to water. Control group was orally administered with 5 mL/kg of 0.5% methyl cellulose (MC) aqueous solution, and the other groups were orally administered with test compounds suspended in 0.5% MC aqueous solution at a dose of 3.0, 10.0 and 30.0 mg/kg/5 mL. For comparison, the compound of Example 134 (Comparative Example 1), the compound of Example 165 (Comparative Example 2) and the compound of Example 166 (Comparative Example 3) in International Patent Publication No. WO2006/036024 were orally administered at the same dose by suspending 0.5% MC aqueous solution, respectively. 1 hour after oral administration, 1 mL of 100% EtOH was orally administered. 1 hour after EtOH administration, the test animals were sacrificed to remove the stomach. Ten in the total 20 animals scraped the mucus of stomach with a slide glass and the mucus contents were analyzed to calculate ED50. […] The incised stomach was placed on a fixture, fixed by a fixing pin while spreading out using a forcep and then the gastric damage area was measured to calculate ED50.

[2] = tested on: H. pylori; test: Antimicrobial activity against H. pylori, MIC by agar dilution method; type: cell-based; settings: Helicobacter pylori
[3] = strain 26695 CHGKG (HPKTCC B3412)

CNCc1cn(S(=O)(=O)c2cccc(F)c2)c(-c2ccc(F)cc2F)c1OC.Cl [Example 8, 1-(5-(2,4-difluorophenyl)-1-((3-fluorophenyl)sulfonyl)-4-methoxy-1H-pyrrol-3-yl)-N-methylmethanamine hydrochloride]
ED50 ([1]; Rattus norvegicus, read-out: Mucus secretion ED50): 12.2 mg/kg
Gastric index ED50 ([1]; gastric damage area): 13.4 mg/kg
MIC ([2]; strain 45 (HPKTCC B0004)): 75 µg/mL
MIC ([2]; strain 51 (HPKTCC B0006)): 75 µg/mL
MIC ([2]; strain 52 (HPKTCC B0007)): 75 µg/mL
MIC ([2]; strain 92-33-1 (HPKTCC B0182)): 75 µg/mL
MIC ([2]; strain 92-82-1 (HPKTCC B0233)): 75 µg/mL
MIC ([2]; strain 92-157 (HPKTCC B0152)): 75 µg/mL
MIC ([2]; strain 118 (HPKTCC B0017)): 150 µg/mL
MIC ([2]; strain 126 (HPKTCC B0020)): 150 µg/mL
MIC ([2]; strain 127 (HPKTCC B0021)): 75 µg/mL
MIC ([2]; strain 133 (HPKTCC B0023)): 37.5 µg/mL
MIC ([2]; strain 134 (HPKTCC B0024)): 75 µg/mL
MIC ([2]; strain 138 (HPKTCC B0026)): 75 µg/mL
MIC ([2]; strain 156 (HPKTCC B0035)): 150 µg/mL
MIC ([2]; strain 159 (HPKTCC B0037)): 150 µg/mL
MIC ([2]; strain 164 (HPKTCC B0040)): 75 µg/mL
MIC ([2]; strain 183 (HPKTCC B0047)): 150 µg/mL
MIC ([2]; strain 193 (HPKTCC B0051)): 75 µg/mL
MIC ([2]; strain 198 (HPKTCC B0055)): 75 µg/mL
MIC ([2]; strain 205 (HPKTCC B0058)): 75 µg/mL
MIC ([2]; strain 210 (HPKTCC B0061)): 75 µg/mL
MIC ([2]; strain 221 (HPKTCC B0068)): 75 µg/mL
MIC ([2]; strain 228 (HPKTCC B0071)): 75 µg/mL
MIC ([2]; strain 235 (HPKTCC B0074)): 75 µg/mL
MIC ([2]; strain 236 (HPKTCC B0075)): 75 µg/mL
MIC ([2]; strain 302 (HPKTCC B0088)): 75 µg/mL
MIC ([2]; strain 26695 (HPKTCC B0100)): 75 µg/mL
MIC [2, 3]: 150 µg/mL
MIC ([2]; strain CH24 (HPKTCC B0508)): 75 µg/mL
MIC ([2]; strain CH94 (HPKTCC B0582)): 37.5 µg/mL
MIC ([2]; strain CH173 (HPKTCC B0494)): 75 µg/mL
MIC ([2]; strain CH175 (HPKTCC B0496)): 75 µg/mL
MIC ([2]; strain CH189 (HPKTCC B0498)): 75 µg/mL
MIC ([2]; strain CH192 (HPKTCC B0500)): 75 µg/mL
MIC ([2]; strain CH272 (HPKTCC B0516)): 75 µg/mL
MIC ([2]; strain CH369 (HPKTCC B0522)): 75 µg/mL
MIC ([2]; strain CH381 (HPKTCC B0524)): 75 µg/mL
MIC ([2]; strain CH498 (HPKTCC B0536)): 75 µg/mL
MIC ([2]; strain CH502 (HPKTCC B0537)): 75 µg/mL
MIC ([2]; strain CH523 (HPKTCC B0541)): 75 µg/mL
MIC ([2]; strain CH541 (HPKTCC B0548)): 75 µg/mL
MIC ([2]; strain CH588 (HPKTCC B0556)): 75 µg/mL
MIC ([2]; strain CH609 (HPKTCC B0558)): 75 µg/mL
MIC ([2]; strain CH612 (HPKTCC B0559)): 75 µg/mL
MIC ([2]; strain CH631 (HPKTCC B0560)): 75 µg/mL
MIC ([2]; strain CH635 (HPKTCC B0562)): 75 µg/mL
MIC ([2]; strain CH674 (HPKTCC B0564)): 75 µg/mL
MIC ([2]; strain CH1056 (HPKTCC B0487)): 75 µg/mL
MIC ([2]; strain CJH7 (HPKTCC B0606)): 75 µg/mL
MIC ([2]; strain CJH8 (HPKTCC B0608)): 37.5 µg/mL
MIC ([2]; strain CJH9 (HPKTCC B0610)): 75 µg/mL
MIC ([2]; strain CJH10 (HPKTCC B0587)): 75 µg/mL
MIC ([2]; strain CJH13 (HPKTCC B0589)): 75 µg/mL
MIC ([2]; strain CJH31 (HPKTCC B0594)): 75 µg/mL
MIC ([2]; strain CJH33 (HPKTCC B0595)): 75 µg/mL
MIC ([2]; strain CJH43 (HPKTCC B0596)): 75 µg/mL
MIC ([2]; strain CJH50 (HPKTCC B0599)): 75 µg/mL
MIC ([2]; strain G88001 (HPKTCC B0722)): 75 µg/mL
MIC ([2]; strain G88007 (HPKTCC B0725)): 75 µg/mL
MIC ([2]; strain J99 (HPKTCC B0748)): 75 µg/mL
MIC ([2]; strain SS1-P-4′ (HPKTCC B3392)): 37.5 µg/mL

CNCc1cn(S(=O)(=O)c2cccc(F)c2)c(-c2c(F)cc(F)cc2F)c1OC.Cl [Example 22, 1-(1-((3-fluorophenyl)sulfonyl)-4-methoxy-5-(2,4,6-trifluorophenyl)-1H-pyrrol-3-yl)-N-methylmethanamine hydrochloride]
MIC ([2]; strain 45 (HPKTCC B0004)): 75 µg/mL
MIC ([2]; strain 51 (HPKTCC B0006)): 75 µg/mL
MIC ([2]; strain 52 (HPKTCC B0007)): 75 µg/mL
MIC ([2]; strain 92-33-1 (HPKTCC B0182)): 75 µg/mL
MIC ([2]; strain 92-82-1 (HPKTCC B0233)): 75 µg/mL
MIC ([2]; strain 92-157 (HPKTCC B0152)): 75 µg/mL
MIC ([2]; strain 118 (HPKTCC B0017)): 75 µg/mL
MIC ([2]; strain 126 (HPKTCC B0020)): 75 µg/mL
MIC ([2]; strain 127 (HPKTCC B0021)): 75 µg/mL
MIC ([2]; strain 133 (HPKTCC B0023)): 75 µg/mL
MIC ([2]; strain 134 (HPKTCC B0024)): 75 µg/mL
MIC ([2]; strain 138 (HPKTCC B0026)): 75 µg/mL
MIC ([2]; strain 156 (HPKTCC B0035)): 75 µg/mL
MIC ([2]; strain 159 (HPKTCC B0037)): 75 µg/mL
MIC ([2]; strain 164 (HPKTCC B0040)): 75 µg/mL
MIC ([2]; strain 183 (HPKTCC B0047)): 75 µg/mL
MIC ([2]; strain 193 (HPKTCC B0051)): 75 µg/mL
MIC ([2]; strain 198 (HPKTCC B0055)): 75 µg/mL
MIC ([2]; strain 205 (HPKTCC B0058)): 75 µg/mL
MIC ([2]; strain 210 (HPKTCC B0061)): 75 µg/mL
MIC ([2]; strain 221 (HPKTCC B0068)): 75 µg/mL
MIC ([2]; strain 228 (HPKTCC B0071)): 75 µg/mL
MIC ([2]; strain 235 (HPKTCC B0074)): 75 µg/mL
MIC ([2]; strain 236 (HPKTCC B0075)): 75 µg/mL
MIC ([2]; strain 302 (HPKTCC B0088)): 75 µg/mL
MIC ([2]; strain 26695 (HPKTCC B0100)): 75 µg/mL
MIC [2, 3]: 150 µg/mL
MIC ([2]; strain CH24 (HPKTCC B0508)): 75 µg/mL
MIC ([2]; strain CH94 (HPKTCC B0582)): 75 µg/mL
MIC ([2]; strain CH173 (HPKTCC B0494)): 75 µg/mL
MIC ([2]; strain CH175 (HPKTCC B0496)): 75 µg/mL
MIC ([2]; strain CH189 (HPKTCC B0498)): 75 µg/mL
MIC ([2]; strain CH192 (HPKTCC B0500)): 75 µg/mL
MIC ([2]; strain CH272 (HPKTCC B0516)): 75 µg/mL
MIC ([2]; strain CH369 (HPKTCC B0522)): 75 µg/mL
MIC ([2]; strain CH381 (HPKTCC B0524)): 75 µg/mL
MIC ([2]; strain CH498 (HPKTCC B0536)): 75 µg/mL
MIC ([2]; strain CH502 (HPKTCC B0537)): 75 µg/mL
MIC ([2]; strain CH523 (HPKTCC B0541)): 75 µg/mL
MIC ([2]; strain CH541 (HPKTCC B0548)): 75 µg/mL
MIC ([2]; strain CH588 (HPKTCC B0556)): 75 µg/mL
MIC ([2]; strain CH609 (HPKTCC B0558)): 75 µg/mL
MIC ([2]; strain CH612 (HPKTCC B0559)): 75 µg/mL
MIC ([2]; strain CH631 (HPKTCC B0560)): 75 µg/mL
MIC ([2]; strain CH635 (HPKTCC B0562)): 75 µg/mL
MIC ([2]; strain CH674 (HPKTCC B0564)): 75 µg/mL
MIC ([2]; strain CH1056 (HPKTCC B0487)): 75 µg/mL
MIC ([2]; strain CJH7 (HPKTCC B0606)): 75 µg/mL
MIC ([2]; strain CJH8 (HPKTCC B0608)): 75 µg/mL
MIC ([2]; strain CJH9 (HPKTCC B0610)): 75 µg/mL
MIC ([2]; strain CJH10 (HPKTCC B0587)): 75 µg/mL
MIC ([2]; strain CJH13 (HPKTCC B0589)): 75 µg/mL
MIC ([2]; strain CJH31 (HPKTCC B0594)): 75 µg/mL
MIC ([2]; strain CJH33 (HPKTCC B0595)): 75 µg/mL
MIC ([2]; strain CJH43 (HPKTCC B0596)): 75 µg/mL
MIC ([2]; strain CJH50 (HPKTCC B0599)): 75 µg/mL
MIC ([2]; strain G88001 (HPKTCC B0722)): 75 µg/mL
MIC ([2]; strain G88007 (HPKTCC B0725)): 75 µg/mL
MIC ([2]; strain J99 (HPKTCC B0748)): 75 µg/mL
MIC ([2]; strain SS1-P-4′ (HPKTCC B3392)): 75 µg/mL
